These results are taken from patent US5922891A, “2-substituted 1,8-dihydroxy-9(10H)-anthracenone pharmaceuticals” (priority 1997, dated 1999).

Series [1] is described as follows: Deoxyribose degradation as a measure of hydroxyl radical formation. The format is biochemical. The settings on record: 75 μM test compound; controls < 0.1. The protocol: ^c Deoxyribose degradation as a measure of hydroxyl radical formation
Indicated values are μmoles of malondialdehyde per mmole of deoxyribos
released by 75 μM test compound (controls < 0.1).
Degradation of deoxyribose provides a measurement of the amount of hydroxyl radical formation caused by the test compounds. The assay used to determine degradation of 2-deoxy-D-ribose followed generally the procedures of Gutteridge, J. M. C., Biochem. J., 224: 761-767 (1984) and Laughton, et al., Biochem. Pharmacol., 38: 2859-2865 (1989). The following reagents were added to glass tubes in the order and at the final concentrations listed. 0.3 mL kH2 PO4 --KOH buffer, pH 7.4 (30 mM), 0.2 ml double distilled H2 O, 0.2 ml 2-deoxy-D-ribose (2 mM), 0.2 ml FeCl3.6H2 O (0.1 mM), 0.1 ml 2-substituted anthracenone ([…]). Stock solutions of each of the 2-substituted anthracenone compounds were made up fresh before use. Appropriate blanks and controls using an acetronitrile vehicle were performed.
Final reaction volumes were standardized to 1.0 ml. The reaction mixtures were incubated for 2 hours at 37° C. in a shaking water bath at 50 rpm. 1 ml of 2.8% (w/v) trichloracetic acid and 1 ml of 1% (w/v in 0.05 N NaOH) 2-thiobarbituric acid (TBA) were added, and the samples were heated at 100° C. for 15 minutes and then cooled in an ice bath (5 minutes). 2 ml of each reaction mixture was treated with 0.05 ml of 36% (w/v) HCl and 2 of 1-butanol, followed by vigorous shaking with a vortex mixer (Heidolph) for 15 seconds. The organic layer was separated by centrifugation at 3000 rpm (15 minutes) and absorbance at 532 nm was measured against butanol. Calibration was performed using a malondialdehyde (MDA) standard prepared by hydrolysis of 1,1,3,3-tetraethoxypropane (Gutteridge, J. M. C., Anal. Biochem., 69: 518-526 (1975). TBA reactive material was expressed in terms of μmol MDA per μmol deoxyribose. The results of the assay are provided in Table I.

A short description of series [2]: Inhibition of AAPH-induced lipid peroxidation in bovine brain phospholipid liposomes. In kind it is biochemical. The method, then: Phospholipids were prepared essentially as described by Gutteridge, J. M. C., (Anal. Biochem., 82: 76-82 (1977)). Bovine brain tissue was cooled on ice, freed from blood vessels and washed repeatedly with 0.15 M NaCl, pH 7.4. The tissue was cut into pieces and then macerated with an ultra-turrax, passed through a fine-meshed sieve, and extracted four times with four times the volume of acetone. The extraction mixture was filtered by suction to remove the acetone, the residue dried under vacuum, and then repeatedly extracted with petroleum ether (40-60) using twice the volume of the original brain homogenate. The combined extracts were filtered, dried at 45° C., and dissolved in ether (one fifth the original brain volume). The mixture was treated with five times the volume of acetone, and the resulting precipitate was collected by suction-filtration, dried and stored under N2 at -20° C. in the dark. Bovine brain phospholipids were weighed into glass tubes and shaken in a vortex mixer (Heidolph) in the presence of five small glass beads (.phi. 4 mm) for 1 minute. The phospholipids were suspended in 0.15 M NaCl, pH 7.4, to a final concentration of 5 mg/ml. The mixture was purged with N2 for 1 minute and vigorously dispersed in a vortex mixer for 5 minutes. The liposomes were allowed to swell for 1 hour at 4° C., and vesicles with a mean size of 1-10 μm were obtained according to the method of Bangham, et al., (J. Mol. Biol., 13:238-252 (1965). The liposomes were stimulated with the azo initiator 2 2'-azobis (2-amidinopropane) hydrochloride according to the method of Gutteridge, J. M. C., (Anal. Biochem. 82:76-82 (1977)).
The following reagents were added to the glass tubes containing stimulating bovine brain phospholipid piposomes in the order and at the final concentrations listed: 0.3 ml HK2 PO4 --KOH buffer, pH 7.4 (30 mM), 0.29 ml double distilled H2 O, 0.2 ml liposomes (1 mg/ml), 0.2 ml FeCl3.H2 O (0.1 mM), 0.01 ml 2-substituted anthracenone compound of the invention (variable concentrations).
Appropriate blanks and controls using the vehicle (acetone) were conducted. The final reaction volumes were standardized to 1.0 ml. The reaction mixtures were incubated for 1 hour at 37° C. in a shaking water bath. […] of 20% (w/v) BHT, 0.5 ml 25% (w/v) HCl and 0.5 ml of 1% 2-thiobarbituric acid were added and the samples were heated at 100° C. for 15 minutes and then cooled in an ice bath (5 minutes). 2 ml of 1-butanol were added and the mixtures were vigorously shaken in a vortex mixer (Heidolph) for 15 seconds. The organic layer was separated by centrifugation at 3000 rpm (15 minutes) and absorbance at 532 nm was measured against butanol.

The test system of the next series is HaCaT cells. The series can be described thus: Antiproliferative activity against HaCaT cells (human keratinocyte cell line). The settings on record: 48 h, read-out: AA IC50 (antiproliferative activity). The format is cell-based. The protocol: HaCaT cells were grown in Dulbecco's modified Eagle's medium (DMEM, No. 041-11954A, Gibco) supplemented with 10% fetal calf serum, penicillin (100 U/mL), and streptomycin (100 μg/mL) in a humidified incubator containing 8% CO2 at 37° C. Cells (2.5·10^4 /1.1 ml per well) were seeded on 24-well multidishes and grown in DMEM. After 24 hours of growth, the medium was replaced with fresh medium and a test compound (0.1-5 μM) was added from freshly made stock solutions, which were prepared in DMSO and diluted with DMEM. The final concentration of DMSO in the culture medium was 0.2%. Controls were performed using DMSO or medium alone. Forty-eight hours after addition of a test compound to the culture, the medium was removed and each well was rinsed with phosphate-buffered saline (PBS, 100 μL). The cells were then incubated with sterile 0.5% trypsin, 0.2% EDTA in PBS for 20 minutes at 37° C. The detached cells from each well were suspended in DMEM and dispersed as single cells by gentle pipetting through an Eppendorf pipette. Cell growth was determined directly by counting the keratinocytes on a Neubauer counting chamber using phase contrast microscopy. Inhibition of cell proliferation was calculated by a comparison of the mean value of the test compound (N=3) with the control (N=6-8) activity: (1-test compound/control)×100.

The next series deals with T1, 5-LO in bovine PMNL (Bos taurus, UniProt F1MQ78).
T1 construct: The purified PMNLs were suspended at a concentration of; endogenous in cells; host or cells: polymorphonuclear leukocytes isolated from bovine blood
T1 sequence (F1MQ78 1-674): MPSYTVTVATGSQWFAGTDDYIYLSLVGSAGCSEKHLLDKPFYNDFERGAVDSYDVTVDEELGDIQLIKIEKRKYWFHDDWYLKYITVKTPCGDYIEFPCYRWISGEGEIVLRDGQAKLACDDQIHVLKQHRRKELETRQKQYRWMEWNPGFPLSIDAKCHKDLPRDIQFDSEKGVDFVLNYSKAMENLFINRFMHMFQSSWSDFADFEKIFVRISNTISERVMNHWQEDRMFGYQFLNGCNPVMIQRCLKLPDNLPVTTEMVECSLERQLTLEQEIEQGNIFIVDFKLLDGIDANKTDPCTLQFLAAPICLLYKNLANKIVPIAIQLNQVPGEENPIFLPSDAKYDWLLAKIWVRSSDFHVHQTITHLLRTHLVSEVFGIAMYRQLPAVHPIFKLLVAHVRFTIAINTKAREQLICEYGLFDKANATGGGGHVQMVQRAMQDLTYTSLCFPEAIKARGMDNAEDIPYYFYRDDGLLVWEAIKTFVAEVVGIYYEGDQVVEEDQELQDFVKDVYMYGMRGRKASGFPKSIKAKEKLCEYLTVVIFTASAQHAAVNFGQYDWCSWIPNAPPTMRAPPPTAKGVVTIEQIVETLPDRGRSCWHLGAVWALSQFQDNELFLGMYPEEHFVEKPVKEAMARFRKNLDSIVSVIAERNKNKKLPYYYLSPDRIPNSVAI
The series can be described thus: Inhibition of 5-lipoxygenase (5-HETE and LTB4 biosynthesis) in Ca-ionophore-stimulated bovine PMNL. The settings on record: N = 3 or more. The format is cell-based. The method, then:
Briefly, PMNLs were prepared from sodium EDTA-anticoagulated bovine blood, essentially as described by Walstra, P. et al., (Biochem. Biophys. Acta, 795:499-503 (1984)). Contaminating platelets were removed by repeated centrifugations at 100 g for 20 minutes. […] Cell counts were conducted with a Sysmex micro cell counter CC-130. Preincubation was performed with 2.4 ml of the suspension and 10 μl of a DMSO stock solution of test compounds at the desired concentrations in phosphate buffered saline (PBS) or vehicle control (DMSO at final concentration of 0.4%) for 15 minutes at 37° C. in a shaking water bath at 50 rpm. […] The incubation mixture was held on ice bath for 20 minutes and then centrifuged at 4000 g for 5 minutes at 0° C. The supernatant was diluted with 5 ml of water and passed through a prewashed (10 ml of methanol and 5 ml of water, sequentially) octadecylsilane reversed phase cartridge (Baker). The eicosanoids were eluted with 3 ml of methanol, diluted with 3 ml of water and subjected to reversed phase HPLC analysis using a 250×4 mm column packed with Nucleosil C18 (7 μm particles; Bischoff, Leonberg, Germany). The isocratic elution conditions of LTB4 were tetrahydrofuran (THF)/methanol/water/acetic acid (25+30+45+0.1), adjusted to pH 5.5 with concentrated NH3, at a flow rate of 0.9 ml/min (Kontron 420 pump), monitored at 280 nm with a Kontron 735 LC UV detector. 5-HETE was monitored at 232 nm using methanol/water/acetic acid (77+23+0.1), pH 5.5 and a flow rate 1.0 ml/min. Data were recorded on a MacLab data acquisition system (WissTech, Germany) and analysis was performed using the application Peaks on an Apple Macintosh Quadra 700 computer. Integrated areas of the peaks were compared to a PGB2 internal standard and to external standards of authentic samples. Molar absorption coefficients of Samuelsson et al., Borgeat, P. and B. Samuelsson, (Proc. Natl. Acad. Sci. USA, 76:2148-2152 (1979)), were used for making calculations. Inhibition was calculated by a comparison of the mean value of test compound (n=3) with control (n=6-8) activity: (1-test compound/control)×100.
See Walstra, P. et al., Biochem Biophys. Acta, 795:499-503 (1984); and Dannhardt et al. J. Pharm. Pharmacol., 44:419-424 (1992). […] (Schroder, J. M., J. Invest. Dermatol., 87:624-629 (1986); Tanzer, et al., Arch. Pharm. (Weinheim), 324:841-846 (1991)).

[3] abbreviates: AAPH-induced, bovine brain phospholipid liposomes, N = 3 or more, read-out: LPO IC50 (inhibition of lipid peroxidation).

pIC50: −log10 of the molar value. Where two headings read alike, the source gives them in different places. Some results are limits rather than exact numbers.

Regarding `CN(O)C(=O)CCc1ccc2c(c1O)C(=O)c1c(O)cccc1C2` [IID, N-Hydroxy-N-methyl-3-(9,10-dihydro-1,8-dihydroxy-9-oxo-2-anthracene)propionamide], the “DD (deoxyribose degradation, malondialdehyde released)” value (shortened to “DD”) in series [1] is 0.92 ± 0.03 μmol of MDA/mmol. For the same compound, the pIC50 – broadly, the IC50 on a negative log10 scale, so that one unit is a factor of ten – in series [2] (setting [3]) was 4.96.
For `COC(=O)CCCc1ccc2c(c1O)C(=O)c1c(O)cccc1C2` [IIIB, Methyl 4-(9,10-Dihydro-1,8-dihydroxy-9-oxo-2-anthracene) butanoate], the pIC50 was 5.96 with HaCaT cells and under 4.52 against 5-LO in bovine PMNL.
Consider `CN(O)C(=O)CCCc1ccc2c(c1O)C(=O)c1c(O)cccc1C2` [IIID, N-Hydroxy-N-methyl-4-(9,10-dihydro-1,8-dihydroxy-9-oxo-2-anthracene)butanamide], for which the “DD” value in series [1] was 1.50 ± 0.02 μmol of MDA/mmol. The pIC50 in series [2] (setting [3]) is 4.43.
As for `COC(=O)C(Cc1ccccc1)c1ccc2c(c1O)C(=O)c1c(O)cccc1C2` (centres unmarked) [IXB, Methyl 2-(9,10-Dihydro-1,8-dihydroxy-9-oxo-2-anthracene)-3-phenylpropionate], in series [1], the “DD” value was 0.01 ± 0.00 μmol of MDA/mmol. In addition, the negative logarithm of the IC50 (pIC50) is 5.74 with HaCaT cells and under 4.52 against 5-LO in bovine PMNL.
Consider `COc1c(OC)c(OC(C)=O)c2cc(Cl)ccc2c1OC(C)=O` [Ionapalene, reference compound], for which the pIC50 in the series on HaCaT cells is 5.49; at 5-LO in bovine PMNL, 6.30.
`CC(Cc1ccc(O)c(O)c1)C(C)Cc1ccc(O)c(O)c1` (centres unmarked) [Nordihydroguaiaretic acid (NDGA), Nordihydroguaiaretic acid, reference compound]: in series [2] (NDGA used as the standard, footnote d, read-out: LPO IC50 of the standard), the pIC50 is 5.70.
Consider `O=C(O)CCCCCc1ccc2c(c1O)C(=O)c1c(O)cccc1C2` [VA, 6-(9,10-Dihydro-1,8-dihydroxy-9-oxo-2-anthracene) hexanoic acid], for which, in series [1], the “DD” value is 2.29 ± 0.03 μmol of MDA/mmol. Also, the pIC50 on 5-LO in bovine PMNL was 4.72.
The like results for `COC(=O)C(CCc1ccccc1)c1ccc2c(c1O)C(=O)c1c(O)cccc1C2` (centres unmarked) [XB, Methyl 2-(9,10-Dihydro-1,8-dihydroxy-9-oxo-2-anthracene)-4-phenylbutanoate] were, in that order, 0.28 ± 0.03 μmol of MDA/mmol and under 4.52.
On to `COC(=O)c1ccc(Cc2ccc3c(c2O)C(=O)c2c(O)cccc2C3)cc1` [XIB, Methyl 4-[(9,10-Dihydro-1,8-dihydroxy-9-oxo-2-anthracene)methyl]benzoate, reference compound], for which the pIC50 at 5-LO in bovine PMNL was under 4.52.
On to `COC(=O)c1ccc(C(=O)c2ccc3c(c2O)C(=O)c2c(O)cccc2C3)cc1` [XIIB, Methyl 4-[(9,10-Dihydro-1,8-dihydroxy-9-oxo-2-anthracene)oxomethyl]benzoate], for which the “DD” value in series [1] is 2.07 ± 0.12 μmol of MDA/mmol. The negative-log IC50 (pIC50) with HaCaT cells was 5.74; on 5-LO in bovine PMNL it was under 4.52.
